Like-named read-outs stand apart in the source and are kept apart here.
Experiments:
[1] = tested on: Chloroquine-sensitive NF54 P. falciparum isolate; assay: In vitro antiplasmodial activity, NF54; assay type: cell-based, Plasmodium falciparum; conditions: for in vitro selectivity index: antiplasmodial selectivity, L6 cytotoxicity vs P. falciparum
P. falciparum K1 = assay: In vitro antiplasmodial activity, K1, 72 h [3H]hypoxanthine incorporation; assay type: cell-based; conditions: Plasmodium falciparum, K1, read-out: P. falciparum IC50 K1
P. falciparum TM90C2B = assay type: cell-based; conditions: Plasmodium falciparum, read-out: P. falciparum IC50 TM90C2B
P. falciparum RF12 = assay: In vitro antiplasmodial activity, RF12, 72 h [3H]hypoxanthine incorporation; assay type: cell-based; conditions: Plasmodium falciparum, read-out: P. falciparum IC50 RF12
P. falciparum Dd2 = assay: In vitro antiplasmodial activity, Dd2, 72 h [3H]hypoxanthine incorporation; assay type: cell-based; conditions: Plasmodium falciparum, DD2, read-out: P. falciparum IC50 Dd2
P. falciparum 7G8 = assay: In vitro antiplasmodial activity, 7G8, 72 h [3H]hypoxanthine incorporation; assay type: cell-based; conditions: Plasmodium falciparum, 7G8, read-out: P. falciparum IC50 7G8
Chromatographic LogD7.4 = assay type: physicochemical; conditions: pH 7.4; for chromatographic logD: gradient HPLC, Phenomenex Synergi Hydro-RP column; for gLogD7.4: chromatographically determined
[2] = In vitro intrinsic clearance in human liver microsomes; assay type: in vitro ADME; conditions: for microsomal CLint: human, liver microsomes, h CLint
[3] = In vitro intrinsic clearance in mouse liver microsomes; assay type: in vitro ADME
[4] = Stability in P. falciparum activity test medium; assay type: physicochemical; conditions: for half-life at 1 μM: P. falciparum in vitro activity test medium
[5] = Stability in 0.1 M PBS pH 7.4; assay type: physicochemical; conditions: 7 h incubation period
[6] = Kinetic solubility at pH 6.5 by nephelometry; assay type: physicochemical; conditions: pH 6.5 phosphate buffer, 1% DMSO, solubility range by nephelometry
[7] = tested on: rat skeletal myoblast L6 cell line; assay: Cytotoxicity, growth inhibition of L6 cells; assay type: cell-based; conditions: read-out: L6 IC50, mean from n ≥ 2
[8] = In vivo pharmacokinetics in mice; design: species or system male Swiss outbred mice
[9] = tested on: GFP MRA-865 strain of Plasmodium berghei; assay: In vivo antimalarial activity in P. berghei-infected mice; conditions: female NMRI mice, four 50 mg/kg daily oral doses; untreated control 52.3 ± 2.6%
[10] = Plasmodium falciparum, NF54, read-out: P. falciparum IC50 NF54, Mean ± SD, n ≥ 2, 72 h [3H]hypoxanthine incorporation assay
[11] = Plasmodium falciparum, NF54, read-out: P. falciparum IC50, NF54, mean from n ≥ 2
[12] = read-out: P. falciparum IC50, NF54, mean from n ≥ 2

Row | SMILES | chromatographic logD (Chromatographic LogD7.4) | microsomal CLint [2] [µL/min/mg] | microsomal CLint [3] [µL/min/mg] | IC50 [1, 11] [nM] | other results
1 | C[C@H]1[C@H](OC(=O)CCC(=O)O)O[C@@H]2O[C@@]3(C)CC[C@H]4[C@H](C)CC[C@@H]1[C@@]24OO3 [Artesunate, artesunate] | – | – | – | – | IC50 [1, 10]: 6 ± 0.9 nM; IC50 (P. falciparum K1): 2.8 ± 0.64 nM; IC50 (P. falciparum TM90C2B): 7.4 ± 1.3 nM; IC50 (P. falciparum RF12): 6.8 ± 1.4 nM; IC50 (P. falciparum Dd2): 6.1 ± 1.4 nM
2 | CCN(CC)CCCC(C)Nc1ccnc2cc(Cl)ccc12 (stereo not shown) [Chloroquine, chloroquine] | – | – | – | – | IC50 ([1]; Plasmodium falciparum, NF54, read-out: P. falciparum IC50 NF54): 9.1 ± 1.5 nM; IC50 (P. falciparum K1): 270 ± 41 nM; IC50 (P. falciparum 7G8): 57 ± 0.9 nM; IC50 (P. falciparum TM90C2B): 160 ± 22 nM; IC50 (P. falciparum RF12): 350 nM; IC50 (P. falciparum Dd2): 180 ± 21 nM
3 | O=C1CCOc2ccccc2C(=O)Nc2ccccc21 [Compound 7, 6,7-Dihydro-8H-dibenzo[b,f][1,5]oxazecine-8,14-(13H)-dione] | – | – | – | – | gLogD7.4 (Chromatographic LogD7.4): 2.0; Kinetic Sol6.5 [6]: >100 µg/mL; IC50 [1, 12]: 21000 nM; fold less potent than 2 (antiplasmodial) ([1]; relative to compound 2): > 100 fold; IC50 [7]: 31000 nM
4 | O=C1CCc2ccccc2C(=O)N2CCCc3cccc1c32 [Compound 15, 2,3,8,9-Tetrahydro-1H-benzo[7,8]azonino[3,2,1-i,j]-quinoline-7,14-dione] | – | – | – | – | gLogD7.4 (Chromatographic LogD7.4): 2.9; Kinetic Sol6.5 [6]: 25 to 50 µg/mL; h CLint [2]: 310 μL/min/mg protein; m CLint [3]: > 870 μL/min/mg protein; IC50 [1, 12]: 100000 nM; IC50 [7]: 83000 nM
5 | CCOC(=O)c1ccc2c(c1)C(=O)CCc1ccccc1C(=O)N2 [Compound 18, Ethyl 6,13-Dioxo-6,11,12,13-tetrahydro-5H-dibenzo-[b,g]azonine-2-carboxylate] | 2.6 | 100 | 910 | 41 | IC50 [1, 10]: 41 ± 7.4 nM; fold more potent than 2 (antiplasmodial) ([1]; relative to compound 2): roughly 5 fold; IC50 (P. falciparum K1): 30 ± 7.5 nM; IC50 (P. falciparum 7G8): 32 ± 9.9 nM; IC50 (P. falciparum TM90C2B): 1000 nM; IC50 (P. falciparum RF12): 11 ± 0.86 nM; IC50 (P. falciparum Dd2): 30 ± 7.2 nM
6 | CS(=O)(=O)c1ccc2c(c1)C(=O)CCc1ccccc1C(=O)N2 [Compound 23, 2-(Methylsulfonyl)-11,12-dihydro-5H-dibenzo[b,g]-azonine-6,13-dione] | 1.6 | 46 | 19 | 5300 | –
7 | O=C1Nc2ccc(C(F)(F)F)cc2C(=O)CCc2ccccc21 [Compound 25, 2-(Trifluoromethyl)-11,12-dihydro-5H-dibenzo[b,g]-azonine-6,13-dione] | 3 | 240 | 79 | 9.4 | –
8 | O=C1Nc2ccc(OC(F)(F)F)cc2C(=O)CCc2ccccc21 [Compound 26, 2-(Trifluoromethoxy)-11,12-dihydro-5H-dibenzo-[b,g]azonine-6,13-dione] | 3.1 | 240 | 110 | 4.2 | gLogD7.4 (Chromatographic LogD7.4): > 3; in vitro selectivity index [1]: > 10,000
9 | O=C1Nc2cc(F)cc(F)c2C(=O)CCc2ccccc21 [Compound 28, 1,3-Difluoro-11,12-dihydro-5H-dibenzo[b,g]azonine-6,13-dione] | 2.5 | 17 | 58 | 7 | in vitro selectivity index [1]: > 10,000; half-life at 1 μM [4]: 4.7 h; clearance ([8]; male, Swiss outbred, mouse, plasma, iv): 147 mL/min/kg; Cmax ([8]; male, Swiss outbred, mouse, plasma, po): ~500 ng/mL; adverse reactions or compound-related side effects ([8]; mice, 24 h post-dose sampling period, IV and PO): No adverse reactions or compound-related side effects were observed; parasitemia [9]: 49.0 ± 4.3%
10 | O=C1Nc2ncccc2C(=O)CCc2ccccc21 [Compound 29, 6,7-Dihydro-5H-benzo[g]pyrido[2,3-b]azonine-5,12-(13H)-dione] | – | – | – | – | gLogD7.4 (Chromatographic LogD7.4): 1.2; Kinetic Sol6.5 [6]: >100 µg/mL; h CLint [2]: 13 μL/min/mg protein; m CLint [3]: 26 μL/min/mg protein; IC50 [1, 12]: 8900 nM; IC50 [7]: 60000 nM
11 | O=C1CCc2cccnc2C(=O)Nc2ccccc21 [Compound 31, 5,6-Dihydro-7H-benzo[b]pyrido[3,2-g]azonine-7,13-(12H)-dione] | – | – | – | – | gLogD7.4 (Chromatographic LogD7.4): 0.9; Kinetic Sol6.5 [6]: >100 µg/mL; h CLint [2]: 11 μL/min/mg protein; m CLint [3]: 10 μL/min/mg protein; IC50 [1, 12]: 11000 nM; IC50 [7]: 190000 nM
12 | O=C1Nc2ccccc2C(=O)CCc2cc(F)ccc21 [Compound 32, 9-Fluoro-11,12-dihydro-5H-dibenzo[b,g]azonine-6,13-dione] | 2.1 | 11 | 110 | 130 | half-life at 1 μM [4]: 25 h; loss in 0.1 M PBS pH 7.4 [5]: < 5%
13 | O=C1CCc2c(O)cccc2C(=O)Nc2ccccc21 [Compound 35, 10-Hydroxy-11,12-dihydro-5H-dibenzo[b,g]azonine-6,13-dione] | 1.3 | 16 | 60 | 5100 | –
14 | O=C1Nc2ccccc2C(=O)CCc2ccc(F)cc21 [Compound 36, 8-Fluoro-11,12-dihydro-5H-dibenzo[b,g]azonine-6,13-dione] | 2.1 | 13 | 43 | 1300 | –
15 | O=C1Nc2ccccc2C(=O)CCc2ccc(O)cc21 [Compound 37, 8-Hydroxy-11,12-dihydro-5H-dibenzo[b,g]azonine-6,13-dione] | 1.2 | 7 | 36 | 1100 | –

Further lines, with some results ahead:

Row | chromatographic logD (Chromatographic LogD7.4) | microsomal CLint [2] [µL/min/mg] | microsomal CLint [3] [µL/min/mg] | IC50 [1, 11] [nM] | SMILES | other results
16 | 1.9 | 20 to 40 | 39 | 190 | O=C1Nc2ccccc2C(=O)CCc2ccccc21 [Compound 2, 11,12-dihydro-5H-dibenzo[b,g]azonine-6,13-dione] | h CLint [2]: 20 μL/min/mg protein; Apparent degradation t1/2, In Vitro Assay Medium ([4]; 1 μM, 37 °C, 6 h incubation, parentheses 95% confidence interval): No loss detected over 6 h; loss in 0.1 M PBS pH 7.4 [5]: < 5%
17 | 2.2 | 38 | 74 | 56 | O=C1Nc2ccc(F)cc2C(=O)CCc2ccccc21 [Compound 24, 2-Fluoro-11,12-dihydro-5H-dibenzo[b,g]azonine-6,13-dione] | –
18 | 3.3 | 190 | 71 | 4.2 | O=C1Nc2ccc(S(F)(F)(F)(F)F)cc2C(=O)CCc2ccccc21 [Compound 27, 2-(Pentafluoro-λ^6-sulfaneyl)-11,12-dihydro-5H-dibenzo[b,g]azonine-6,13-dione] | gLogD7.4 (Chromatographic LogD7.4): > 3
19 | 0.9 | 19 | 18 | 9400 | O=C1CCc2ncccc2C(=O)Nc2ccccc21 [Compound 30, 12,13-Dihydro-5H-benzo[b]pyrido[2,3-g]azonine-5,11(6H)-dione] | –
20 | 2 | < 7 | 160 | 390 | N#Cc1ccc2c(c1)CCC(=O)c1ccccc1NC2=O [Compound 33, 6,13-Dioxo-6,11,12,13-tetrahydro-5H-dibenzo[b,g]-azonine-9-carbonitrile] | –
21 | 1.1 | 61 | 84 | 15000 | O=C1Nc2ccccc2C(=O)CCc2cc(O)ccc21 [Compound 34, 9-Hydroxy-11,12-dihydro-5H-dibenzo[b,g]azonine-6,13-dione] | –

From PMC10860121 (ACS infectious diseases, 2023)
